From ChEMBL document CHEMBL4138295, “Late-Stage Microsomal Oxidation Reduces Drug-Drug Interaction and Identifies Phosphodiesterase 2A Inhibitor PF-06815189” (ACS Med Chem Lett, 2018)
Blank lines part the entries; values can stand above or below the molecule they belong to. Calls of active or inactive are those of the source. No cut-off for these calls is given here.

How the values were obtained:
[1] = Apparent permeability in RRCK cells; assay type: ADME, cell-based, Canis lupus familiaris; conditions: dog, mdckii-le
[2] = molecular target: cGMP-dependent 3',5'-cyclic phosphodiesterase (Homo sapiens, UniProt O00408); assay: Inhibition of human PDE2A1 using 3',5'-[3H]cGMP as substrate measured after 30 mins by Yttrium silicate scintillation proximity assay
cGMP-dependent 3',5'-cyclic phosphodiesterase, sequence (O00408 whole entry): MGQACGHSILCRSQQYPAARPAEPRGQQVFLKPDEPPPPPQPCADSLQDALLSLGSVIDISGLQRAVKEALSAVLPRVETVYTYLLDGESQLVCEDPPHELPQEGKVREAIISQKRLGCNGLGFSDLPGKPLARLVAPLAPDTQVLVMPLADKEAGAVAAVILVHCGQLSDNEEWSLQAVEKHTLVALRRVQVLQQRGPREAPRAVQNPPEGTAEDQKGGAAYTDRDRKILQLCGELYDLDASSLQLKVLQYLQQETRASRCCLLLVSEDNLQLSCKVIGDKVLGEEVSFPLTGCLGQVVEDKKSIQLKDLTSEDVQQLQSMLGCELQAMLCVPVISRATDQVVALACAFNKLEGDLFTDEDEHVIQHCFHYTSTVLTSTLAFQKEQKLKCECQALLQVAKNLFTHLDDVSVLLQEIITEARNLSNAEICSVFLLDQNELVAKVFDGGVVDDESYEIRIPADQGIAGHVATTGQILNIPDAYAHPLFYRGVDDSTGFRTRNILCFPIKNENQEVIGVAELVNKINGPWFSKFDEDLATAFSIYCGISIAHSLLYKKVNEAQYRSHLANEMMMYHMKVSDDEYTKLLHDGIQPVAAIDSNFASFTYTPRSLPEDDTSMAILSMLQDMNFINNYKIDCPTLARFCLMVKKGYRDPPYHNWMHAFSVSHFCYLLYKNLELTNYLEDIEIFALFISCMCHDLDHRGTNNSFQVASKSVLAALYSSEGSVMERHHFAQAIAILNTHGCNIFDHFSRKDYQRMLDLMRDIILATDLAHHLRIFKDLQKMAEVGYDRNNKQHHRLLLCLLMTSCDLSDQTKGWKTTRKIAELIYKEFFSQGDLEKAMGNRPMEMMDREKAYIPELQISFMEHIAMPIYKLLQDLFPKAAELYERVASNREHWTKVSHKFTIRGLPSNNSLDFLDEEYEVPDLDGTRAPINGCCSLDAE

Cavia porcellus = assay: Inhibition of histamine-mediated increase in vascular permeability in guinea pig assessed as reduction in extravasation of Evan's blue dye-labeled albumin from blood to skin at 0.3 to 10 mg/kg, sc measured after 30 mins by spectrophotometric method; assay type: functional, organism-based
[3] = Drug recovery in Wistar-Han rat at 1 mg/kg, iv or 5 mg/kg, po via gavage measured up to 24 hrs by LC-MS/MS analysis; assay type: ADME, organism-based; conditions: in vivo, read-out: Drug recovery
Rattus norvegicus [4] = assay: Volume of distribution at steady state in Wistar-Han rat at 1 mg/kg, iv or 5 mg/kg, po via gavage by LC-MS/MS analysis; assay type: ADME, organism-based; conditions: in vivo
Rattus norvegicus [5] = assay: Oral bioavailability in Wistar-Han rat at 5 mg/kg administered via gavage by LC-MS/MS analysis; assay type: ADME, organism-based; conditions: in vivo
[6] = Oral bioavailability in cynomolgus monkey at 5 mg/kg administered via gavage by LC-MS/MS analysis; assay type: ADME, organism-based, Macaca fascicularis; conditions: in vivo
Canis familiaris [7] = assay: Half life in Beagle dog at 1 mg/kg, iv or po via gavage by LC-MS/MS analysis; assay type: ADME, organism-based, Canis lupus familiaris; conditions: in vivo
Homo sapiens [8] = species on record: Homo sapiens; assay: Inhibition of sodium channel site 2 (unknown origin) at 10 uM relative to control
Cynomolgus monkey [9] = assay: Volume of distribution at steady state in cynomolgus monkey at 1 mg/kg, iv or po via gavage by LC-MS/MS analysis; assay type: ADME, organism-based, Macaca fascicularis; conditions: in vivo
Canis familiaris [10] = assay: Volume of distribution at steady state in Beagle dog at 1 mg/kg, iv or po via gavage by LC-MS/MS analysis; assay type: ADME, organism-based, Canis lupus familiaris; conditions: in vivo
Homo sapiens [11] = species on record: Homo sapiens; assay: Selectivity ratio of IC50 for PDE5A1 (unknown origin) to IC50 for human PDE2A1
[12] = molecular target: cGMP-specific 3',5'-cyclic phosphodiesterase (Homo sapiens, UniProt O76074); assay: Inhibition of PDE5A1 (unknown origin) using 3',5'-[3H]cGMP as substrate measured after 30 mins by Yttrium silicate scintillation proximity assay
[13] = Drug recovery in cynomolgus monkey at 1 mg/kg, iv or po via gavage measured up to 24 hrs by LC-MS/MS analysis; assay type: ADME, organism-based, Macaca fascicularis; conditions: in vivo, read-out: Drug recovery
Cynomolgus monkey [14] = assay: Half life in cynomolgus monkey at 1 mg/kg, iv or po via gavage by LC-MS/MS analysis; assay type: ADME, organism-based, Macaca fascicularis; conditions: in vivo
[15] = Drug recovery in Beagle dog at 1 mg/kg, iv or po via gavage measured up to 24 hrs by LC-MS/MS analysis; assay type: ADME, organism-based, Canis lupus familiaris; conditions: in vivo, read-out: Drug recovery
[16] = Oral bioavailability in Beagle dog at 5 mg/kg administered via gavage by LC-MS/MS analysis; assay type: ADME, organism-based, Canis lupus familiaris; conditions: in vivo
[17] = Half life in Wistar-Han rat at 1 mg/kg, iv or 5 mg/kg, po via gavage by LC-MS/MS analysis; assay type: ADME, organism-based; conditions: in vivo
[18] = Drug metabolism in cynomolgus monkey liver microsomes assessed as PF-06815189 formation at 20 uM measured after 50 mins by UHPLC-UV analysis; assay type: ADME, Macaca fascicularis, microsome
Cytochrome P450 3A4 = Cytochrome P450 3A4 (Homo sapiens, UniProt P08684); assay: Binding affinity to recombinant human CYP3A4 expressed in microsomes at 1 uM after 3 to 60 mins in presence of NADPH by HPLC-MS analysis; assay type: ADME
Cytochrome P450 3A4, sequence (P08684 whole entry): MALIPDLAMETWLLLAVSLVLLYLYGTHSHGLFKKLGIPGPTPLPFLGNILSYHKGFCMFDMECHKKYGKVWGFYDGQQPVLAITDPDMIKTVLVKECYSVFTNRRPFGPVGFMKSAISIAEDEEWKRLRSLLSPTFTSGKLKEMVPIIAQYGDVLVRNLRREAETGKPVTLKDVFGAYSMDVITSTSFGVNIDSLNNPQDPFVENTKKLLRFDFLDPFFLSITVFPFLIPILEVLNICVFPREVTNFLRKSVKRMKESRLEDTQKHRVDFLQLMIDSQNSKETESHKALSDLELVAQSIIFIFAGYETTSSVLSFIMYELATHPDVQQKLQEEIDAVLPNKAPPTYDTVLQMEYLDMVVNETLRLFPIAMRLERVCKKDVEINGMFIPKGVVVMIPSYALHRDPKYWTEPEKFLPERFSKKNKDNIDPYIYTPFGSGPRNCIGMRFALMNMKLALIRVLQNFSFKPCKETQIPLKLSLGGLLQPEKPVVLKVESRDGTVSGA

[19] = Drug metabolism in cynomolgus monkey liver microsomes assessed as 7-(3-(hydroxymethyl)-1-methyl-5-(4-(trifluoromethyl)phenyl)-1H-pyrazol-4-yl)-2,5-dimethylimidazo[1,5-f][1,2,4]triazin-4(3H)-one formation at 20 uM measured after 50 mins by UHPLC-UV analysis; assay type: ADME, Macaca fascicularis, microsome
[20] = Drug metabolism in cynomolgus monkey liver microsomes assessed as 5-(hydroxymethyl)-7-(3-(hydroxymethyl)-1-methyl-5-(4-(trifluoromethyl)phenyl)-1H-pyrazol-4-yl)-2-methylimidazo[1,5-f][1,2,4]triazin-4(3H)-one formation at 20 uM measured after 50 mins by UHPLC-UV analysis; assay type: ADME, Macaca fascicularis, microsome

- Papp [1]: 17 ×10⁻⁶ cm/s
- IC50 [2]: 6.9 nM
SMILES: Cc1nn2c(-c3c(CO)nn(C)c3-c3ccc(C(F)(F)F)cc3)nc(C)c2c(=O)[nH]1

- Papp [1]: 5 ×10⁻⁶ cm/s
SMILES: Cc1nn2c(-c3c(CO)nn(C)c3-c3ccc(C(F)(F)F)cc3)nc(CO)c2c(=O)[nH]1

- dose excreted at 24 h [3]: 22%
- Vdss (Rattus norvegicus [4]): 1.5 L/kg
- F (Rattus norvegicus [5]): 50%
- bioavailability [6]: 61%
- t1/2 (Canis familiaris [7]): 4.8 h
- inhibition (Homo sapiens [8]): 17%
- Vdss (Cynomolgus monkey [9]): 0.8 L/kg
- Vdss (Canis familiaris [10]): 0.4 L/kg
- Ratio IC50 (Homo sapiens [11]): 1000
- IC50 [12]: 2440 nM
- dose excreted at 24 h [13]: 26%
- t1/2 (Cynomolgus monkey [14]): 3.6 h
- Papp [1]: 8 ×10⁻⁶ cm/s
- IC50 [2]: 0.4 nM
- dose excreted at 24 h [15]: 48%
- bioavailability [16]: 79%
- half-life [17]: 1.2 h
SMILES: Cc1nn2c(-c3c(C)nn(C)c3-c3ccc(C(F)(F)F)cc3)nc(CO)c2c(=O)[nH]1
- inhibition (Cavia porcellus): Active

- Drug metabolism [18]: Metabolite_Detected
- Activity (Cytochrome P450 3A4): Active
- Drug metabolism [19]: Metabolite_Detected
- IC50 [2]: 0.6 nM
- Drug metabolism [20]: Metabolite_Detected
SMILES: Cc1nn2c(-c3c(C)nn(C)c3-c3ccc(C(F)(F)F)cc3)nc(C)c2c(=O)[nH]1
